According to US4368194A, “Pharmacologically active amine boranes” (The United States of America as represented by the …, priority 1981, dated 1983):
Like-named read-outs stand apart in the source and are kept apart here.

Tests used:
[1] = molecular target: T1, prostaglandin synthetase from beef seminal vesicle (Bos taurus, UniProt O62664); assay: Prostaglandin synthetase activity; assay type: biochemical; conditions: for activity at 1 µM / inhibition at 1 µM: 10^-6 M
T1 construct: purchased; host or cells: beef seminal vesicle
T1 sequence (O62664 25-600): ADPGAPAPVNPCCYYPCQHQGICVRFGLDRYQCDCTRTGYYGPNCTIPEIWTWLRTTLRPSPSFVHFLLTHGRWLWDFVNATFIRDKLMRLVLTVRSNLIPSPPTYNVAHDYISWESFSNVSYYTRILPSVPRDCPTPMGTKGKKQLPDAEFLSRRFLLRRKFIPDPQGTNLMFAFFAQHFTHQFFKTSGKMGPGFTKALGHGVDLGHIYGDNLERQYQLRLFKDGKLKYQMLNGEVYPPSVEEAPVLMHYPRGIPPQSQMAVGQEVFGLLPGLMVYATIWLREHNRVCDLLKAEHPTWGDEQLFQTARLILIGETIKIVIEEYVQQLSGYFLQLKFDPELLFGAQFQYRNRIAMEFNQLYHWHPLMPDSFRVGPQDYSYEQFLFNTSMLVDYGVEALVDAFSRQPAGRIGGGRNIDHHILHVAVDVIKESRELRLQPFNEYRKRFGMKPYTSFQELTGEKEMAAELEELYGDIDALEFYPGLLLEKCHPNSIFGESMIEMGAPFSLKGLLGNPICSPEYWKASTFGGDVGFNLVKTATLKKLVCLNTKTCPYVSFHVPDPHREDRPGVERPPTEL
Method: After 1 hr at 37° C. the reaction was stopped with 1 N HCl and extracted with ethyl ether and evaporated. […] The plates were dried and developed in iodine vapor and with the use of prostaglandin standards the appropriate areas were scraped and counted for ^3 H content. Indometacin was used as a standard at 10^-4 M concentration. Test drugs were used at 10^-6 M.

Cathepsin [2] = assay: Lysosomal free cathepsin activity, PMNs; assay type: cell-based; conditions: 5 μmoles; for PMNs % Free Cathespin Activity, pH5: in vitro, 60 min
Method: (§1) Polymorphonuclear neutrophils (PMNs) were collected from the peritoneal cavity four hr after the injection of 35 ml of 0.5% oyster glycogen in isotonic saline (Orange et al., J. Exp. Med., 127, 767 1968). The PMNs were centrifuged down at 800 g for 20 min, washed, and resuspended in minumen essential medium (MEM) with 10% fetal calf serum pH 7.4.
(§2) Acid phosphatase activity (Gianetto et al., Biochem J., 59, 433 1955) was carried out by incubating with 0.1 Mβ-glycerol phosphate in 0.1 M acetate, pH 5.0 with 5 μmoles of test drugs in 1% carboxymethylcellulose (CMC) for 20 min with liver homogenate and 60 min with resuspended PMNs. Lysosome enzymes were released by 0.02% alkyl phenoxy polyethoxy ethanol-100 to obtain the total enzymatic activity. The reaction was stopped with 10% trichloroacetic acid and the solution centrifuged. Aliquots of the supernatant were assayed for inorganic phophate content by the method of Chen et al., Anal Chem., 28, 1756 (1956). Percent free acid phosphatase was calculated. Cathepsin activity was determined in an analagous manner except the substrate used was 2% azocasein (Schleuning et al., Methods in Enzymology, XLV, 330 1976) in 0.1 M acetate buffer pH 5.0. The supernatant was assayed for acid soluble peptide fragments at 366 nm. Percent free cathepsin activity was calculated.

liver mitochondria [3] = assay: Oxidative phosphorylation, α-ketoglutarate as substrate; assay type: biochemical, rats; conditions: 5 μmoles; for Oxidative Phosphorylation α Ketoglutarate State 3: ADP stimulated respiration; for Oxidative Phosphorylation α Ketoglutarate State 4: basal respiration
Method: (§3) Basal and adenosine diphosphate stimulated respiration on 10% liver homogenates was measured using succinate or αketoglutarate as substrate. See Glatt, et al., supra. The reaction vessel contained sucrose 55μ moles, KCl 22μ moles, K2 HPO4 22μ moles, test compounds at 5μ moles in 1% CMC and sodium succinate 90μ moles or αketoglutarate 60μ moles in a total volume of 1.8 ml. […] The rate of respiration was calculated at μl of O2 consumed/hr/mg wet weight of liver.

Acid phosphatase [4] = assay: Lysosomal free acid phosphatase activity, liver homogenate; assay type: biochemical, rats; conditions: 5 μmoles, in vitro; 20 min
Method: (§4) Lysosomal enzymatic assays - Sprague Dawley rats (about 160 g) were sacrificed, the liver excised, and a 10% homogenate (4x) in 0.25 M sucrose and 0.001 M (ethylenedinitrilo) tetra acetic acid, ph 7.2 was prepared.
as §2

Sprague Dawley rats = assay: Red and white blood cell counts after 3 weeks dosing; assay type: in vivo; conditions: dosing for three weeks intraperitoneally, rats
Text: Hematocrits were also obtained.

Acid phosphatase [5] = assay: Lysosomal free acid phosphatase activity, PMNs; assay type: cell-based; conditions: 5 μmoles; for PMNs % Free Acid Phosphatase Activity, pH5: in vitro, 60 min
Method: as §1, §2

liver mitochondria [6] = assay: Oxidative phosphorylation, succinate as substrate; assay type: biochemical, rats; conditions: 5 μmoles; for Oxidative Phosphorylation Succinate State 3: ADP stimulated respiration; for Oxidative Phosphorylation Succinate State 4: basal respiration
Method: as §3

[7] = system: carrageenan induced edema in mouse foot pads; assay: Anti-inflammatory screen (carrageenan induced foot edema); assay type: in vivo, mice; conditions: for Anti-inflammatory Screen: mice; for inhibition of the carrageenan induced edema in mouse foot pads: text summary of Table II
Method: CF1 male mice (about 30 g) were administered test drugs at 10 mg/kg in 0.05% polysorbate .80-water intraperitoneally 3 hr and 30 min prior to 0.05 ml of 2% carrageenan in 0.9% saline injected into the plantar surface of the right hind foot. Saline injected into the left hind foot served as a base line. After 3 hr, both feet were excised at the tibiotarsal (ankle) joint according to the modified (Roszkowski et al., J. Pharm. Exp. Ther., 179, 114 1971) method of Winter, resulting in an 87 mg net increase in the weight of the control animals' feet.

CF1 male mice = assay: Writhing reflex (acetic acid); assay type: in vivo; conditions: for Writhing Reflex: mice; for inhibition of the writhing reflex: text summary of Table II
Method: CF1 male mice were administered test drugs at 20 mg/kg intraperitoneally 20 min (see Hendershat et al., J. Pharmacol Exp. Ther. 125, 237 1959) prior to the administration of 0.5 ml of 0.6% acetic acid (Vingar et al., European J. PHarmacol, 37, 23 1976). After 5 min the number of stretches, characterized by repeated contractures of the abdominal musculature accompanied by extension of the hind limbs, was counted for the next 10 min. The control mice had 78 stretch reflexes per 10 min.

cAMP levels in PMNs = assay: Cyclic-3',5'-adenosine monophosphate levels (cAMP) in PMNs; assay type: cell-based; conditions: 1 h; for activation at 5 µmol: read-out: increase of cyclic adenosine monophosphate levels in PMNs
Method: as §1
Isolated PMNs were incubated with test drugs at 5μ moles for 1 hr at 37° C. in MEM at pH 7.4. The reaction was stopped with 6% trichloroacetic acid. The cyclic-3',5'-adenosine monophosphate levels were determined by the radioimmunoassay of Gilman, Proc. Natl. Acad. Sci. (USA), 67, 305 (1970), using 3H(G)-cyclic-3',5'-adenosine monophosphate (39.8 Cu/m mol). Results were calculated in p mole/10^7 PMNs cells.

Cathepsin [8] = assay: Lysosomal free cathepsin activity, liver homogenate; assay type: biochemical, rats; conditions: 5 μmoles; for Liver % Free Cathepsin Activity, pH5: in vitro, 20 min
Method: as §4, §2

Male Sprague Dawley rats = assay: Chronic adjuvant arthritic screen; assay type: in vivo; conditions: indomethacin tested at 10 mg/kg, rats
Method: Male Sprague Dawley rats (about 160 g) were injected at the base of the tail with 0.2 ml of solution of killed and dried Mycobacterium butyricum and digitonin in mineral oil (see Waksman et al., J. Immunol., 85, 403 1960). Test drugs were administered intraperitoneally commencing on day 3 through day 20 at 2.5 mg/kg/day. Animals were sacrificed on day 21, and the feet were excised and weighed.

[9] = Hydrolytic, air and moisture stability
in vivo = conditions: mouse
[10] = 1 h, read-out: Prostaglandin Synthesis
[11] = pH 7.4, 5 μmoles, in vitro, read-out: PMNs cAMP Level
[12] = read-out: inhibition of prostaglandin synthesis
[13] = indomethacin tested at 10 mg/kg
[14] = pH 7.4, read-out: PMNs cAMP Level

| Compound | activity at 1 µM [1, 10] | PMNs % Free Cathespin Activity, pH5 (Cathepsin [2]) | Oxidative Phosphorylation α Ketoglutarate State 3 (liver mitochondria [3]) | Oxidative Phosphorylation α Ketoglutarate State 4 (liver mitochondria [3]) | Liver % Free Acid Phosphatase Activity, pH5 (Acid phosphatase [4]) | alteration of the red blood or white blood cell count/cu mm (Sprague Dawley rats) | PMNs % Free Acid Phosphatase Activity, pH5 (Acid phosphatase [5]) | Oxidative Phosphorylation Succinate State 3 (liver mitochondria [6]) | Oxidative Phosphorylation Succinate State 4 (liver mitochondria [6]) | Anti-inflammatory Screen ([7]; 10 mg/kg × 2 intraperitoneally) | inhibition of the carrageenan induced edema in mouse foot pads [7] | Writhing Reflex (CF1 male mice; 20 mg/kg intraperitoneally) | inhibition of the writhing reflex (CF1 male mice) | activity at 5 µmol (cAMP levels in PMNs; [11]) | Liver % Free Cathepsin Activity, pH5 (Cathepsin [8]) | inhibition at 1 µM [1, 12] | activity at 5 µmol (cAMP levels in PMNs; [14]) | inhibition of PMN cathepsin activity (Cathepsin [2]) | inhibition of free acid phosphatase activity in PMNs (Acid phosphatase [5]) | LD50 (in vivo) | also measured |
| --- | --- | --- | --- | --- | --- | --- | --- | --- | --- | --- | --- | --- | --- | --- | --- | --- | --- | --- | --- | --- | --- |
| [BH3-][NH+]1CCOCC1 [Compound II, O(CH2 CH2)2 NH.BH3] | 100 ± 5% | 93 ± 7 % Control | 50 ± 11 % Control | 97 ± 29 % Control | 75 ± 8 % Control | no alteration | 79 ± 5 % Control | 66 ± 10 % Control | 115 ± 15 % Control | 55 % Control | at least 40% | 15 % Control | 80% | 107% | 107 ± 6 % Control |  |  |  |  |  |  |
| COc1ccc2c(c1)c(CC(=O)O)c(C)n2C(=O)c1ccc(Cl)cc1 [Indomethacin, reference compound] |  | 100 ± 1 % Control |  |  | 86 ± 4 % Control |  | 100 ± 2 % Control |  |  |  |  |  |  |  | 67 ± 6 % Control | 24% | 80% |  |  |  | inhibition at 100 µM ([1]; 10^-4 M, read-out: inhibition of prostaglandin synthesis): 36%; activity at 100 µM ([1]; 1 h, 10^-4 M (indomethacin), read-out: Prostaglandin Synthesis): 64 ± 2%; Anti-Arthritic Screen (Male Sprague Dawley rats): 27 % Control; Anti-inflammatory Screen [7, 13]: 22 % Control; Writhing Reflex (CF1 male mice; [13]): 43 % Control |
| C[N+](C)(C)[BH2-]C(=O)O [VIII, trimethylamine-carboxyborane] | 93 ± 3% | 14 ± 4 % Control | 70 ± 20 % Control | 127 ± 22 % Control | 82 ± 5 % Control |  | 50 ± 3 % Control | 63 ± 4 % Control | 122 ± 14 % Control | 79 % Control |  | 29 % Control | 70% | 99% | 56 ± 6 % Control |  |  | at least 82% | 50% |  | uncoupling with α-ketoglutarate as substrate (liver mitochondria [3]): uncoupling; stability to air and water/moisture [9]: stable in air and H2 O |
| C[N+]1([BH2-]C#N)CCOCC1 [XIV, O(CH2 CH2)2 N(CH3).BH2 CN] | 38 ± 3% | 37 ± 5 % Control | 51 ± 16 % Control | 140 ± 47 % Control | 68 ± 7 % Control | no alteration | 50 ± 3 % Control | 36 ± 5 % Control | 62 ± 10 % Control |  |  |  |  |  | 13 ± 5 % Control |  | 165% |  | 50% | 23 mg/kg | both states 3 and 4 respiration with succinate (liver mitochondria [6]): inhibited; Anti-inflammatory Screen ([7]; 1/3 dose (of 10 mg/kg × 2)): 91 % Control; Writhing Reflex (CF1 male mice; 1/3 dose (of 20 mg/kg)): 78 % Control; activation at 5 µmol (cAMP levels in PMNs): 65%; inhibition of free proteolytic cathepsin activity of liver (Cathepsin [8]): at least 75% |
| C[N+](C)([BH2-]C#N)CCC#N [XIX, 3-Dimethylaminopropionitrile-cyanoborane] | 53 ± 7% | 17 ± 5 % Control | 33 ± 8 % Control | 105 ± 33 % Control | 66 ± 4 % Control | no alteration | 100 ± 9 % Control | 24 ± 7 % Control | 43 ± 16 % Control | 74 % Control |  | 89 % Control |  |  | 15 ± 3 % Control | > 30% | 199% | at least 82% |  | 140 mg/kg | both states 3 and 4 respiration with succinate (liver mitochondria [6]): inhibited; activation at 5 µmol (cAMP levels in PMNs): 99%; inhibition of free proteolytic cathepsin activity of liver (Cathepsin [8]): at least 75% |
| N#C[BH2-][NH3+] [XVII, ammonia-cyanoborane] | 55 ± 6% | 26 ± 4 % Control | 40 ± 9 % Control | 149 ± 27 % Control | 75 ± 5 % Control |  | 100 ± 2 % Control | 60 ± 11 % Control | 112 ± 7 % Control | 51 % Control | at least 40% | 50 % Control |  |  | 48 ± 6 % Control | > 30% | 93% |  |  | 30 mg/kg | loss of hydrogen (hydrolytic stability) ([9]; concentrated HCl, 70 hr, room temperature): 8% |
